Results taken from patent US20200405696A1, “INHIBITORS OF INDOLEAMINE 2,3-DIOXYGENASE AND/OR TRYPTOPHAN 2,3-DIOXYGENASE” (IDORSIA PHARMACEUTICALS LTD, priority 2018, published 2020).

Experiments:
[1] = target: T1, Recombinant full-length human IDO1 (Homo sapiens, UniProt P14902); assay: IDO1 enzymatic assay (NFK quantified by LCMS); type: biochemical; conditions: 2 nM enzyme, 5 μM L-tryptophan, pH6.5, 30 minutes pre-incubation at RT; mean values when measured multiple times; read-out: hIDO activity (IC50 in nM)
T1 construct: Recombinant full-length human IDO1 with a N-terminal hexahistidine tag; hexahistidine (His6) (N); made in house; host or cells: E. coli
T1 sequence (P14902 whole entry): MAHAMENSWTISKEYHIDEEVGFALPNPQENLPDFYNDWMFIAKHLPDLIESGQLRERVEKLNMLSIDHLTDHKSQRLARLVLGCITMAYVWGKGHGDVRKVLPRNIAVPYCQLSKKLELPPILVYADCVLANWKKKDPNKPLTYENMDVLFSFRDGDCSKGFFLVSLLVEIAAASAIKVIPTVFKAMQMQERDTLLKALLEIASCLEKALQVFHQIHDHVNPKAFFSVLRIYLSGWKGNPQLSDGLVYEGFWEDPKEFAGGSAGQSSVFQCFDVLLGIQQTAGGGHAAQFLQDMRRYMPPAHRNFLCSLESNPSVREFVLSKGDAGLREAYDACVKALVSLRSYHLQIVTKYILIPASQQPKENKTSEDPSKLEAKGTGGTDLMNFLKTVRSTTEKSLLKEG
In short: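 His-tagged human IDO1 (2 nM) in pH 6.5 phosphate buffer with ascorbate, methylene blue and catalase was preincubated with compound (10 μM–0.5 nM, 0.6% DMSO) for 30 min at RT. The reaction then ran with 5 μM L-Trp for 30 min. NFK was measured by LCMS against a d5-Trp standard, and IC50 was obtained by four-parameter fit.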

[2] = target: T2, Recombinant human TDO comprising amino acids 19-407 (Homo sapiens, UniProt P48775); assay: TDO2 enzymatic assay (NFK quantified by LCMS); type: biochemical; conditions: 15 nM enzyme, 200 μM L-tryptophan, pH7, 30 minutes pre-incubation at RT; mean values when measured multiple times; read-out: hTDO activity (IC50 in nM)
T2 construct: Recombinant human TDO comprising amino acids 19-407 with a N-terminal hexahistidine tag; hexahistidine (His6) (N); made in house; host or cells: E. coli
T2 sequence (P48775 19-406 limits assumed): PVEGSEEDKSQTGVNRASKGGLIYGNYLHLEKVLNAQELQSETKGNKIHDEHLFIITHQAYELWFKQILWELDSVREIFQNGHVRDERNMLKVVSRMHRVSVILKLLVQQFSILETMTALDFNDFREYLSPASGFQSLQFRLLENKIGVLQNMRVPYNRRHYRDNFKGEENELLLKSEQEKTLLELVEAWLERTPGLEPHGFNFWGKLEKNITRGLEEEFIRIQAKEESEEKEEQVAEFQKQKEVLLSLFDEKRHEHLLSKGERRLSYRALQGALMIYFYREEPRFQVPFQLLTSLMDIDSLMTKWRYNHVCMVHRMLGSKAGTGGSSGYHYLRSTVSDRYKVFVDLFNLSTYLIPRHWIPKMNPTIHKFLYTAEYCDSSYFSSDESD
In short: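 NFK formed over 30 min at RT from 200 μM L-tryptophan was measured by LCMS, normalized to d5-tryptophan, after compound (0.5 nM–10 μM, duplicates, 0.6% DMSO) was preincubated 30 min with 15 nM recombinant His-tagged TDO 19-407 in phosphate buffer pH 7. IC50 from four-parameter logistic fit; repeats averaged.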

Structure (SMILES)	IC50 [1] [nM]	IC50 [2] [nM]
COc1ccc(-n2cc(C(O)c3c(C4CC4)sc4cncn34)nn2)nc1OC (racemic) [Example 66, rac-(2-Cyclopropyl-imidazo[5,1-b]thiazol-3-yl)-[1-(5,6-dimethoxy-pyridin-2-yl)-1H-[1,2,3]triazol-4-yl]-methanol]	200	> 10200
COc1ncc(-n2cc(C(O)c3c(C4CC4)sc4cncn34)nn2)cn1 (racemic) [Example 67, rac-(2-Cyclopropyl-imidazo[5,1-b]thiazol-3-yl)-[1-(2-methoxy-pyrimidin-5-yl)-1H-[1,2,3]triazol-4-yl]-methanol]	50.2	9160
COC(=O)c1cc(-n2cc(C(O)c3c(C4CC4)sc4cncn34)nn2)cnc1OC (racemic) [Example 70, rac-5-{4-[(2-Cyclopropyl-imidazo[5,1-b]thiazol-3-yl)-hydroxy-methyl]-[1,2,3]triazol-1-yl}-2-methoxy-nicotinic acid methyl ester]	201	> 10200
COc1ncc(-n2cc(C(O)c3c(C4CC4)sc4cncn34)nn2)cc1C (racemic) [Example 71, rac-(2-Cyclopropyl-imidazo[5,1-b]thiazol-3-yl)-[1-(6-methoxy-5-methyl-pyridin-3-yl)-1H-[1,2,3]triazol-4-yl]-methanol]	55.9	> 10200
OC(c1cn(-c2cnc3c(c2)CCCO3)nn1)c1c(C2CC2)sc2cncn12 (racemic) [Example 72, rac-(2-Cyclopropyl-imidazo[5,1-b]thiazol-3-yl)-[1-(3,4-dihydro-2H-pyrano[2,3-b]pyridin-6-yl)-1H-[1,2,3]triazol-4-yl]-methanol]	35.5	> 10200
CC(C)Oc1ncc(-n2cc(C(O)c3c(C4CC4)sc4cncn34)nn2)cc1Cl (racemic) [Example 73, rac-[1-(5-Chloro-6-isopropoxy-pyridin-3-yl)-1H-[1,2,3]triazol-4-yl]-(2-cyclopropyl-imidazo[5,1-b]thiazol-3-yl)-methanol]	36.1	> 10200
CCOc1ncc(-n2cc(C(O)c3c(C4CC4)sc4cncn34)nn2)cc1Cl (racemic) [Example 74, rac-[1-(5-Chloro-6-ethoxy-pyridin-3-yl)-1H-[1,2,3]triazol-4-yl]-(2-cyclopropyl-imidazo[5,1-b]thiazol-3-yl)-methanol]	24.3	> 10200
COC(=O)COc1ccc(-n2cc(C(O)c3c(C4CC4)sc4cncn34)nn2)cn1 (racemic) [Example 75, rac-(5-{4-[(2-Cyclopropyl-imidazo[5,1-b]thiazol-3-yl)-hydroxy-methyl]-[1,2,3]triazol-1-yl}-pyridin-2-yloxy)-acetic acid methyl ester]	40.7	> 10200
CCOc1ncc(-n2cc(C(O)c3c(C4CC4)sc4cncn34)nn2)cc1C(F)(F)F (racemic) [Example 76, rac-(2-Cyclopropyl-imidazo[5,1-b]thiazol-3-yl)-[1-(6-ethoxy-5-trifluoromethyl-pyridin-3-yl)-1H-[1,2,3]triazol-4-yl]-methanol]	363	> 10200
OC(c1cn(-c2ccc(OCc3ccccc3)nc2)nn1)c1c(C2CC2)sc2cncn12 (racemic) [Example 77, rac-[1-(6-Benzyloxy-pyridin-3-yl)-1H-[1,2,3]triazol-4-yl]-(2-cyclopropyl-imidazo[5,1-b]thiazol-3-yl)-methanol]	32.7	> 10200
COc1cc(-n2cc(C(O)c3c(C4CC4)sc4cncn34)nn2)cnc1OC (racemic) [Example 80, rac-(2-Cyclopropyl-imidazo[5,1-b]thiazol-3-yl)-[1-(5,6-dimethoxy-pyridin-3-yl)-1H-[1,2,3]triazol-4-yl]-methanol]	51.2	> 10200
COc1ccc(-n2cc(C(O)c3c(C4CC4)sc4cncn34)nn2)c(OC)n1 (racemic) [Example 81, rac-(2-Cyclopropyl-imidazo[5,1-b]thiazol-3-yl)-[1-(2,6-dimethoxy-pyridin-3-yl)-1H-[1,2,3]triazol-4-yl]-methanol]	36.1	> 10200
CC(C)Oc1ccc(-n2cc(C(O)c3c(C4CC4)sc4cncn34)nn2)cn1 (racemic) [Example 82, rac-(2-Cyclopropyl-imidazo[5,1-b]thiazol-3-yl)-[1-(6-isopropoxy-pyridin-3-yl)-1H-[1,2,3]triazol-4-yl]-methanol]	44.2	> 10200
OC(c1cn(-c2cnc(OC3CCC3)nc2)nn1)c1c(C2CC2)sc2cncn12 (racemic) [Example 83, rac-[1-(2-Cyclobutoxy-pyrimidin-5-yl)-1H-[1,2,3]triazol-4-yl]-(2-cyclopropyl-imidazo[5,1-b]thiazol-3-yl)-methanol]	10.9	> 10200
COc1ncc(-n2cc(C(O)c3c(C4CC4)sc4cncn34)nn2)c(OC)n1 (racemic) [Example 84, rac-(2-Cyclopropyl-imidazo[5,1-b]thiazol-3-yl)-[1-(2,4-dimethoxy-pyrimidin-5-yl)-1H-[1,2,3]triazol-4-yl]-methanol]	81.7	> 10200
OC(c1cn(-c2ccc(OCCN3CCCCC3)cc2)nn1)c1c(C2CC2)sc2cncn12 (racemic) [Example 89, rac-(2-Cyclopropyl-imidazo[5,1-b]thiazol-3-yl)-{1-[4-(2-piperidin-1-yl-ethoxy)-phenyl]-1H-[1,2,3]triazol-4-yl}-methanol]	204	> 10200

More lines, in order of falling IC50 [1], values ahead:

IC50 [1] [nM]	IC50 [2] [nM]	Structure (SMILES)
23.1	> 10200	COc1cc(-n2cc(C(O)c3c(C4CC4)sc4cncn34)nn2)c(OC)nn1 (racemic) [Example 86, rac-(2-Cyclopropyl-imidazo[5,1-b]thiazol-3-yl)-[1-(3,6-dimethoxy-pyridazin-4-yl)-1H-[1,2,3]triazol-4-yl]-methanol]
22.7	> 10200	COc1ccc(-n2cc(C(O)c3c(C4CC4)sc4cncn34)nn2)cn1 (racemic) [Example 69, rac-(2-Cyclopropyl-imidazo[5,1-b]thiazol-3-yl)-[1-(6-methoxy-pyridin-3-yl)-1H-[1,2,3]triazol-4-yl]-methanol]
20.7	> 10200	OC(c1cn(-c2ccc(OCC3CCOCC3)cc2)nn1)c1c(C2CC2)sc2cncn12 (racemic) [Example 87, rac-(2-Cyclopropyl-imidazo[5,1-b]thiazol-3-yl)-{1-[4-(tetrahydro-pyran-4-ylmethoxy)-phenyl]-1H-[1,2,3]triazol-4-yl}-methanol]
18.7	> 10200	OC(c1cn(-c2ccc(OCC3CCCO3)cc2)nn1)c1c(C2CC2)sc2cncn12 (racemic) [Example 90, rac-(2-Cyclopropyl-imidazo[5,1-b]thiazol-3-yl)-{1-[4-(tetrahydro-furan-2-ylmethoxy)-phenyl]-1H-[1,2,3]triazol-4-yl}-methanol]
17.4	> 10200	OC(c1cn(-c2ccc(OCC(F)(F)F)nc2)nn1)c1c(C2CC2)sc2cncn12 (racemic) [Example 78, rac-(2-Cyclopropyl-imidazo[5,1-b]thiazol-3-yl)-{1-[6-(2,2,2-trifluoro-ethoxy)-pyridin-3-yl]-1H-[1,2,3]triazol-4-yl}-methanol]
14.2	> 10200	CCOc1ncc(-n2cc(C(O)c3c(C4CC4)sc4cncn34)nn2)cn1 (racemic) [Example 65, rac-(2-Cyclopropyl-imidazo[5,1-b]thiazol-3-yl)-[1-(2-ethoxy-pyrimidin-5-yl)-1H-[1,2,3]triazol-4-yl]-methanol]
12.9	> 10200	COCCOc1ccc(-n2cc(C(O)c3c(C4CC4)sc4cncn34)nn2)cc1 (racemic) [Example 91, rac-(2-Cyclopropyl-imidazo[5,1-b]thiazol-3-yl)-{1-[4-(2-methoxy-ethoxy)-phenyl]-1H-[1,2,3]triazol-4-yl}-methanol]
12.6	> 10200	OC(c1cn(-c2ccc(OCC3COC3)cc2)nn1)c1c(C2CC2)sc2cncn12 (racemic) [Example 88, rac-(2-Cyclopropyl-imidazo[5,1-b]thiazol-3-yl)-{1-[4-(oxetan-3-ylmethoxy)-phenyl]-1H-[1,2,3]triazol-4-yl}-methanol]
11.5	> 10200	OC(c1cn(-c2cnc(OCc3ccccc3)nc2)nn1)c1c(C2CC2)sc2cncn12 (racemic) [Example 85, rac-[1-(2-Benzyloxy-pyrimidin-5-yl)-1H-[1,2,3]triazol-4-yl]-(2-cyclopropyl-imidazo[5,1-b]thiazol-3-yl)-methanol]
8.08	> 10200	Oc1ccc(-n2cc(C(O)c3c(C4CC4)sc4cncn34)nn2)cc1 (racemic) [Example 68, rac-4-{4-[(2-Cyclopropyl-imidazo[5,1-b]thiazol-3-yl)-hydroxy-methyl]-[1,2,3]triazol-1-yl}-phenol]
7.22	> 10200	COc1ncc(-n2cc(C(O)c3c(C4CC4)sc4cncn34)nn2)cc1F (racemic) [Example 79, rac-(2-Cyclopropyl-imidazo[5,1-b]thiazol-3-yl)-[1-(5-fluoro-6-methoxy-pyridin-3-yl)-1H-[1,2,3]triazol-4-yl]-methanol]
